From publication PMC5893428, “Heligmosomoides polygyrus Venom Allergen-like Protein-4 (HpVAL-4) is a sterol binding protein” (International Journal for Parasitology, 2018)

Biological target: T1, HpVAL-4 (Heligmosomoides polygyrus, UniProt A0A183GMB4)
T1 construct: mature protein, Arabidopsis chitinase signal peptide for secretion, no tag mentioned; Nicotiana benthamiana leaf apoplast; N-glycosylated
Experiment: radioligand binding, adsorption to Q-Sepharose, scintillation counting

T1 sequence (A0A183GMB4 entry or part of it): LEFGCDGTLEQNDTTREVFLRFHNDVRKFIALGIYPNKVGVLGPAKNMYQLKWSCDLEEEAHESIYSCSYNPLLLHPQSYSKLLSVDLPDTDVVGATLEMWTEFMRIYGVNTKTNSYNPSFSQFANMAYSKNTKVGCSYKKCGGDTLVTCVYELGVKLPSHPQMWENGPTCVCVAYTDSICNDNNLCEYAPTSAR

## CC(C)CCC[C@@H](C)[C@H]1CC[C@H]2[C@@H]3CC=C4C[C@@H](O)CC[C@]4(C)[C@H]3CC[C@]12C [cholesterol]
  Kd: 1530 nM
